{
  "source": "the supplement of paper PMC10307832",
  "assay_in_all_cases": "relative viability (nuclei count vs DMSO), 5 days (fraction); higher = more cells survive",
  "key": {"[1]": {"compound": "C1COCCN1CC2=CC(=O)C(=CO2)OCCCCCSC3=C4C=CC(=CC4=NC=C3)C(F)(F)F [EHT 1864] + N=C(N)NC(=N)NCCc1ccccc1 [Phenformin] (partner 250 µM)", "procedure,_shortened": "(§1)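 Lung cancer cell lines, seeded in 1536-well plates, were treated the following day by pin tool with a single drug or with five library-drug doses (not always all listed) in √10 steps on top of a fixed anchor-drug dose. Cells were fixed and nuclei stained in one step after 5 days, and nuclei were counted. Relative viability is the nuclei count for treated wells divided by that for vehicle wells, reported as medians of duplicate plates.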"}, "[2]": {"compound": "C1COCCN1CC2=CC(=O)C(=CO2)OCCCCCSC3=C4C=CC(=CC4=NC=C3)C(F)(F)F [EHT 1864] + CS(=O)(=O)N1CCN(Cc2cc3nc(-c4cccc5[nH]ncc45)nc(N4CCOCC4)c3s2)CC1 [Pictilisib] (partner 1 µM)", "procedure,_shortened": "as §1"}, "[3]": {"compound": "C1COCCN1CC2=CC(=O)C(=CO2)OCCCCCSC3=C4C=CC(=CC4=NC=C3)C(F)(F)F [EHT 1864] + Cc1nc(NC(=O)N2CCC[C@H]2C(N)=O)sc1-c1ccnc(C(C)(C)C(F)(F)F)c1 [Alpelisib] (partner 2 µM)", "procedure,_shortened": "as §1"}, "[4]": {"compound": "C1COCCN1CC2=CC(=O)C(=CO2)OCCCCCSC3=C4C=CC(=CC4=NC=C3)C(F)(F)F [EHT 1864] + NC(=O)Nc1cc(-c2cccc(F)c2)sc1C(=O)N[C@H]1CCCNC1 [AZD7762] (partner 0.2 µM)", "procedure,_shortened": "as §1"}},
  "data": [
    {"cell line": "NCI-H441", "values": [
      {"measurement": "relative viability", "setting": "[1]; first compound 0.04 µM", "value": 0.845},
      {"measurement": "relative viability", "setting": "[1]; first compound 0.1265 µM", "value": 0.604},
      {"measurement": "relative viability", "setting": "[1]; first compound 0.4 µM", "value": 0.717},
      {"measurement": "relative viability", "setting": "[1]; first compound 1.265 µM", "value": 0.853},
      {"measurement": "relative viability", "setting": "[1]; first compound 4 µM", "value": 0.932},
      {"measurement": "relative viability", "setting": "[2]; first compound 0.04 µM", "value": 0.388},
      {"measurement": "relative viability", "setting": "[2]; first compound 0.1265 µM", "value": 0.359},
      {"measurement": "relative viability", "setting": "[2]; first compound 0.4 µM", "value": 0.515},
      {"measurement": "relative viability", "setting": "[2]; first compound 1.265 µM", "value": 0.6},
      {"measurement": "relative viability", "setting": "[2]; first compound 4 µM", "value": 0.508},
      {"measurement": "relative viability", "setting": "[3]; first compound 0.04 µM", "value": 0.73},
      {"measurement": "relative viability", "setting": "[3]; first compound 0.1265 µM", "value": 0.644},
      {"measurement": "relative viability", "setting": "[3]; first compound 0.4 µM", "value": 0.532},
      {"measurement": "relative viability", "setting": "[3]; first compound 1.265 µM", "value": 0.779},
      {"measurement": "relative viability", "setting": "[3]; first compound 4 µM", "value": 0.729},
      {"measurement": "relative viability", "setting": "[4]; first compound 0.04 µM", "value": 1.01},
      {"measurement": "relative viability", "setting": "[4]; first compound 0.4 µM", "value": 1.04},
      {"measurement": "relative viability", "setting": "[4]; first compound 1.265 µM", "value": 1.11},
      {"measurement": "relative viability", "setting": "[4]; first compound 4 µM", "value": 1.5}
    ]},
    {"cell line": "NCI-H460", "values": [
      {"measurement": "relative viability", "setting": "[1]; first compound 0.04 µM", "value": 0.508},
      {"measurement": "relative viability", "setting": "[1]; first compound 0.1265 µM", "value": 0.443},
      {"measurement": "relative viability", "setting": "[1]; first compound 0.4 µM", "value": 0.513},
      {"measurement": "relative viability", "setting": "[1]; first compound 1.265 µM", "value": 0.518},
      {"measurement": "relative viability", "setting": "[1]; first compound 4 µM", "value": 0.568},
      {"measurement": "relative viability", "setting": "[2]; first compound 0.04 µM", "value": 0.379},
      {"measurement": "relative viability", "setting": "[2]; first compound 0.1265 µM", "value": 0.401},
      {"measurement": "relative viability", "setting": "[2]; first compound 0.4 µM", "value": 0.365},
      {"measurement": "relative viability", "setting": "[2]; first compound 1.265 µM", "value": 0.251},
      {"measurement": "relative viability", "setting": "[2]; first compound 4 µM", "value": 0.345},
      {"measurement": "relative viability", "setting": "[3]; first compound 0.04 µM", "value": 0.427},
      {"measurement": "relative viability", "setting": "[3]; first compound 0.1265 µM", "value": 0.57},
      {"measurement": "relative viability", "setting": "[3]; first compound 0.4 µM", "value": 0.475},
      {"measurement": "relative viability", "setting": "[3]; first compound 1.265 µM", "value": 0.444},
      {"measurement": "relative viability", "setting": "[3]; first compound 4 µM", "value": 0.486},
      {"measurement": "relative viability", "setting": "[4]; first compound 0.04 µM", "value": 0.642},
      {"measurement": "relative viability", "setting": "[4]; first compound 0.1265 µM", "value": 0.541},
      {"measurement": "relative viability", "setting": "[4]; first compound 0.4 µM", "value": 0.635},
      {"measurement": "relative viability", "setting": "[4]; first compound 1.265 µM", "value": 0.436},
      {"measurement": "relative viability", "setting": "[4]; first compound 4 µM", "value": 0.568}
    ]},
    {"cell line": "NCI-H596", "values": [
      {"measurement": "relative viability", "setting": "[1]; first compound 0.04 µM", "value": 0.75},
      {"measurement": "relative viability", "setting": "[1]; first compound 0.1265 µM", "value": 0.523},
      {"measurement": "relative viability", "setting": "[1]; first compound 0.4 µM", "value": 0.753},
      {"measurement": "relative viability", "setting": "[1]; first compound 1.265 µM", "value": 0.571},
      {"measurement": "relative viability", "setting": "[1]; first compound 4 µM", "value": 0.813},
      {"measurement": "relative viability", "setting": "[2]; first compound 0.04 µM", "value": 0.374},
      {"measurement": "relative viability", "setting": "[2]; first compound 0.1265 µM", "value": 0.445},
      {"measurement": "relative viability", "setting": "[2]; first compound 0.4 µM", "value": 0.388},
      {"measurement": "relative viability", "setting": "[2]; first compound 1.265 µM", "value": 0.334},
      {"measurement": "relative viability", "setting": "[2]; first compound 4 µM", "value": 0.373},
      {"measurement": "relative viability", "setting": "[3]; first compound 0.04 µM", "value": 0.524},
      {"measurement": "relative viability", "setting": "[3]; first compound 0.1265 µM", "value": 0.529},
      {"measurement": "relative viability", "setting": "[3]; first compound 0.4 µM", "value": 0.506},
      {"measurement": "relative viability", "setting": "[3]; first compound 1.265 µM", "value": 0.434},
      {"measurement": "relative viability", "setting": "[3]; first compound 4 µM", "value": 0.514},
      {"measurement": "relative viability", "setting": "[4]; first compound 0.04 µM", "value": 1.21},
      {"measurement": "relative viability", "setting": "[4]; first compound 0.1265 µM", "value": 1.04},
      {"measurement": "relative viability", "setting": "[4]; first compound 0.4 µM", "value": 1.1},
      {"measurement": "relative viability", "setting": "[4]; first compound 1.265 µM", "value": 1.04},
      {"measurement": "relative viability", "setting": "[4]; first compound 4 µM", "value": 1.46}
    ]},
    {"cell line": "NCI-H647", "values": [
      {"measurement": "relative viability", "setting": "[1]; first compound 0.04 µM", "value": 0.589},
      {"measurement": "relative viability", "setting": "[1]; first compound 0.1265 µM", "value": 0.432},
      {"measurement": "relative viability", "setting": "[1]; first compound 0.4 µM", "value": 0.561},
      {"measurement": "relative viability", "setting": "[1]; first compound 1.265 µM", "value": 0.6},
      {"measurement": "relative viability", "setting": "[1]; first compound 4 µM", "value": 0.545},
      {"measurement": "relative viability", "setting": "[2]; first compound 0.04 µM", "value": 0.56},
      {"measurement": "relative viability", "setting": "[2]; first compound 0.4 µM", "value": 0.468},
      {"measurement": "relative viability", "setting": "[2]; first compound 1.265 µM", "value": 0.325},
      {"measurement": "relative viability", "setting": "[2]; first compound 4 µM", "value": 0.433},
      {"measurement": "relative viability", "setting": "[3]; first compound 0.04 µM", "value": 1.21},
      {"measurement": "relative viability", "setting": "[3]; first compound 0.1265 µM", "value": 1.04},
      {"measurement": "relative viability", "setting": "[3]; first compound 0.4 µM", "value": 1.26},
      {"measurement": "relative viability", "setting": "[3]; first compound 1.265 µM", "value": 0.977},
      {"measurement": "relative viability", "setting": "[3]; first compound 4 µM", "value": 1.18},
      {"measurement": "relative viability", "setting": "[4]; first compound 0.04 µM", "value": 0.621},
      {"measurement": "relative viability", "setting": "[4]; first compound 0.1265 µM", "value": 0.296},
      {"measurement": "relative viability", "setting": "[4]; first compound 0.4 µM", "value": 0.661},
      {"measurement": "relative viability", "setting": "[4]; first compound 1.265 µM", "value": 0.44},
      {"measurement": "relative viability", "setting": "[4]; first compound 4 µM", "value": 0.461}
    ]}
  ]
}
